The values that follow come from patent EP3322687B1, “2-BENZYL-INDANONE COMPOUNDS AS ANTICANCER AGENT AND A PROCESS FOR PREPARATION THEREOF” (Council of Scientific and Industrial Research, priority 2015, dated 2017).

SMILES strings stand for the structures. Values joined by “and” are separate entries in the source; they are usually repeats but may differ in a detail not shown here. Equal entries are not always repeated. Where two headings read alike, the source gives them in different places.

The test system of one series is A549 (Lung). In words: Sulforhodamine B cytotoxicity assay. It is filed as cell-based. To be noted: Homo sapiens, A549; for IC50: SRB, 48 hours incubation, read-out: Human cancer cell lines IC50 A549 (Lung). Here is the method: (§1) The benzyl compounds were evaluated by Sulforhodamine B Assay as per reported method [Skehan etal., J. Natl. Cancer Inst.1990, 82, 1107]. The human cancer cell lines procured from National Cancer Institute, Frederick, U. S. A. were used in present study. Cells were grown in tissue culture flasks in complete growth medium (RPMI-1640 medium with 2 mM glutamine, pH 7.4 supplemented with 10% fetal bovine serum, 100 µg/ml streptomycin and 100 units/ml penicillin) in a carbon dioxide incubator (37°C, 5% CO2, 90% RH). The cells at subconfluent stage were harvested from the flask by treatment with trypsin (0.05% in PBS (pH 7.4) containing 0.02% EDTA). Cells with viability of more than 98%, as determined by trypan blue exclusion, were used for determination of cytotoxicity. The cell suspension required concentration of cells was prepared in complete growth medium. Stock solution of 2x10^-2 M of compounds were prepared in DMSO and further dilution was carried out complete growth medium containing 50µg/ml of gentamycin to obtained working test solution of required concentration. In vitro cytotoxicity against various human cancer cell lines was determined using 96-well cell culture plates. The 100µl of cell suspension was added to each well of the 96-well cell culture plates. The cells were allowed to grow in CO2 incubator (37°C, 5% CO2, 90% RH) for 24 hours. The test materials in complete growth medium (100 µl) were added after 24 hours incubation to the wells containing cell suspension. The plates were further incubated for 48 hours (37°C in an atmosphere of 5% CO2 and 90% relative humidity) in a carbon dioxide incubator after addition of test material and then the cell growth was stopped by gently layering trichloroacetic acid (50% TCA, 50 µl) on top of the medium in all the wells. The plates were incubated at 4°C for one hour to fix the cells attached to the bottom of the wells. The liquid of all the wells was gently pipetted out and discarded. The plates were washed five times with distilled water to remove TCA, growth medium low molecular weight metabolites, serum proteins etc. and air - dried. Cell growth was measured by staining with sulforhodamine B dye. The adsorbed dye was dissolved in Tris-HCl Buffer (100 µl/well, 0.01M, pH 10.4) and plates were gently stirred for 10 minutes on a mechanical stirrer. The optical density (OD) was recorded on ELISA reader at 540nm. Paclitaxel (Taxol), and 5-Fluorouracil were used as positive controls (Standard drugs).
On the technique in general: In SRB staining, fixed cells bind dye roughly in proportion to their protein.

The test system of a further series is HCT-116 (Colon). In words: Sulforhodamine B cytotoxicity assay. The settings on record: Homo sapiens, HCT-116; for IC50: SRB, 48 hours incubation, read-out: Human cancer cell lines IC50 HCT-116 (Colon). In kind it is cell-based. How it is done: as §1
Another series has as its system Hela (Cervix). In words: Sulforhodamine B cytotoxicity assay. It is filed as cell-based. To be noted: Homo sapiens, Concentration 20 µM. How it is done: as §1
Another series concerns MCF-7 (Breast cancer). In words: Sulforhodamine B cytotoxicity assay. It is filed as cell-based. To be noted: Homo sapiens, MCF7; for IC50: SRB, 48 hours incubation, read-out: Human cancer cell lines IC50 MCF-7 (Breast cancer). How it is done: as §1
In a further series the test system is T-47D (Breast cancer). In words: Sulforhodamine B cytotoxicity assay. In kind it is cell-based. To be noted: Homo sapiens, T47D; for IC50: SRB, 48 hours incubation, read-out: Human cancer cell lines IC50 T-47D (Breast cancer). Here is the method: as §1
In the next series the test system is THP-1 (Leukemia). In words: Sulforhodamine B cytotoxicity assay. In kind it is cell-based. The settings on record: Homo sapiens, THP-1; for IC50: SRB, 48 hours incubation, read-out: Human cancer cell lines IC50 THP-1 (Leukemia). Here is the method:
as §1

Series [1] concerns Ehrlich Ascites Carcinoma (EAC). In kind it is in vivo, Swiss mice. To be noted: for % Tumor cell growth: 20 mg/kg i/p day 1-9, Day 12, control = 100; for Mortality: 20 mg/kg i/p day 1-9, Day 12, dead/total animals. How it is done: Ehrlich ascites carcinoma (EAC) cells were collected from the peritoneal cavity of the Swiss mice harbouring 8-10 days old ascitic tumor. 1x10^7 EAC cells were injected intraperitoneally in Swiss mice selected for the experiment on day 0. The next day, animals were randomized and divided into different groups. The treatment groups contained 7 animals each and control group contained 10 animals. The treatment group was treated with 20 mg/kg of Compound 2 intra-peritoneally from day 1-9. One more of the treatment group received 5-fluorouracil (20 mg/kg, i.p) and it served as positive control. The tumor bearing control group was similarly administered normal saline (0.2 ml, i.p.). On day 12, animals were sacrificed and ascitic fluid was collected from peritoneal cavity of each mouse for the evaluation of tumor growth. Percent tumor growth inhibition was calculated based on the total number of tumor cells present in the peritoneal cavity as on day 12 of the experiment using the following formula. Percent tumor growth inhibition = (Av.no.of cells in control group−Av.no.of cells in treated group)/(Av.no.of cells in control group) × 100 [formula]

A further series deals with Ehrlich Tumor (solid). In kind it is in vivo, Swiss mice. How it is done: Ehrlich ascites carcinoma (EAC) cells were collected from the peritoneal cavity of the Swiss mice harbouring 8-10 days old ascitic tumor. 1x10^7 EAC cells were injected intramuscularly in right thigh of Swiss male mice selected for the experiment on day 0. The next day, animals were randomized and divided into different groups. Two treatment groups contained 7 animals each and one control group contained 10 animals. The first treatment group was given compound 2 (20 mg/kg i/p) from day 1-9. The second treatment group was treated with 5-fluorouracil (22 mg/kg, i.p) from day 1-9 and it served as positive control. The control group was similarly administered normal saline (0.2 ml, i.p.) from day 1-9. On day 9 & 13, tumor bearing thigh of each animal was shaved and longest and shortest diameters of the tumor were measured with the help of vernier caliper. Tumor weight of each animal was calculated using the following formula. Tumor weight (mg) = (Length(mm) × ([width(mm)])^2)/(2) [formula]
The percent tumor growth inhibition was calculated on day 13 by comparing the average values of treated groups with that of control group. Tumor growth in saline treated control animals was taken to be 100%. Table 6. In-vivo anticancer activity of 2 against Ehrlich ascites carcinoma (solid)

The test system of the next series is tubulin protein. In kind it is biochemical. The settings on record: read-out: Tubulin polymerisation inhibition IC50. Here is the method: The tubulin polymerization experiment was performed using 'assay kit'(Cytoskeleton USA) following manufacturer's protocol based on the procedure described by of Shelanski et al, (1973) and Lee et al. (1977). Briefly, tubulin protein (3mg/mL) in tubulin polymerization buffer (80 mM PIPES, pH 6.9, 2 mM MgCl2, 0.5 mM EGTA, 1 mM GTP and 15% glycerol) was placed in prewarmed 96-well microtiter plates at 37° C in the presence of test compounds with variable concentrations. All samples were mixed well and polymerization was monitored kinetically at 340 nm every min for 1h using a Spectramax plate reader. The IC50 value was determined from dose-dependent analysis and is defined as the concentration that inhibits the rate of polymerization by 50%. Podophyllotoxin was used as standard tubulin polymerisation inhibitor as positive control.

For the molecule `O=c1[nH]cc(F)c(=O)[nH]1` [5-Fluorouracil], the inhibition (as a rule, the drop in the measured response relative to a control, in per cent) at 20 µM in the series with A549 (Lung) (Concentration 20 µM) was 54%; with HCT-116 (Colon) (Concentration 20 µM), 88%; in the series on Hela (Cervix), 70%; in the series with MCF-7 (Breast cancer) (Concentration 20 µM), 50%; with T-47D (Breast cancer) (Concentration 20 µM), 60%; in the series with THP-1 (Leukemia) (Concentration 20 µM) it was 90%. Further, the “%Tumor Growth Inhibition” value is given as 95.4% in series [1] (20 mg/kg i/p day 1-9, Day 12) and 59.07% with Ehrlich Tumor (solid) (22 mg /Kg i/p day 1-9, day 13). For the same molecule, the “Av, Volume of ascitic fluid” value in [1] (20 mg/kg i/p day 1-9, Day 12) turned out to be 0.7 mL. Moreover, the “Av. No. of tumor cells” value in [1] (20 mg/kg i/p day 1-9, Day 12) was 6.33 x 10^7. For the same molecule, the “Av. Weight of ascitic fluid” value in series [1] (20 mg/kg i/p day 1-9, Day 12) is 0.46 g. Besides, the “% Tumor cell growth” value in series [1] worked out at 4.6%. The Mortality in series [1] is reported as 0/7; in the series with Ehrlich Tumor (solid) (22 mg /Kg i/p day 1-9, dead/total animals), 0/7. The “Day 13 Av. Tumor weights” value in the series with Ehrlich Tumor (solid) (22 mg /Kg i/p day 1-9, Day 13) is 842.85 ± 129.92 mg.
On to `COc1cc(C2c3c(cc(OC)c(OC)c3OC)C(=O)C2Cc2ccc(F)cc2)cc(OC)c1OC` (centres unmarked) [Compound 4, 2-(4"-fluorobenzyl)-3-(3',4',5'-trimethoxyphenyl)-4,5,6-trimethoxy-indan-1-one], for which the IC50 (as a rule, the point on the concentration scale where inhibition reaches its midpoint) in the series on A549 (Lung) amounted to 24 µM; in the series with HCT-116 (Colon), 22 µM; in the series with MCF-7 (Breast cancer), 45 µM; in the series on T-47D (Breast cancer), 36 µM; in the series with THP-1 (Leukemia), 55 µM.
The like results for `COc1ccc(CC2C(=O)c3cc(OC)c(OC)c(OC)c3C2c2cc(OC)c(OC)c(OC)c2)c(OC)c1` (centres unmarked) [Compound 5, 2-(2",4"-dimethoxybenzyl)-3-(3',4',5'-trimethoxyphenyl)-4,5,6-trimethoxy-indan-1-one] were, in that order, 1 µM, 4 µM, 12 µM, 12 µM and 1 µM.
With `COc1cc(C2C(=Cc3ccc4c(c3)OCO4)C(=O)c3cc(OC)c(OC)c(OC)c32)cc(OC)c1OC` (centres unmarked) [Compound 12, 2-benzo[1,3]dioxo-5-ylmethylene-4,5,6-trimethoxy-3-(3,4,5-trimethoxyphenyl)-indan-1-one], the IC50 in the series with A549 (Lung) was determined as 11 µM; with HCT-116 (Colon), 0.1 µM; in the series on MCF-7 (Breast cancer), 0.01 µM; in the series on THP-1 (Leukemia) it was 4.9 µM; in the series on tubulin protein (tubulin 3mg/mL, 37° C, 340 nm, 1h), 630 nM. The “%Tumor Growth Inhibition” value in series [1] (20 mg/kg i/p day 1-9, Day 12) was 45.5% and 45.48%; in the series on Ehrlich Tumor (solid) (20 mg/kg i/p day 1-9, day 13) it was 35.9% and 35.91%. Besides, in [1] (20 mg/kg i/p day 1-9, Day 12), the “Av, Volume of ascitic fluid” value was determined as 6.11 mL. The “Av. Weight of ascitic fluid” value in series [1] (20 mg/kg i/p day 1-9, Day 12) is reported as 5.88 g. In addition, the “% Tumor cell growth” value in series [1] was found to be 54.52%. The Mortality in [1] is 0/7; with Ehrlich Tumor (solid) (20 mg/kg i/p day 1-9, dead/total animals), 0/7. Moreover, in series [1] (20 mg/kg i/p day 1-9, EAC-bearing female Swiss mice, Day 1), the “Body weight Day 1” value is on record as 21.42 g. Moreover, the “Body weight Day 5” value in [1] (20 mg/kg i/p day 1-9, EAC-bearing female Swiss mice, Day 5) was 22.85 g. Besides, the “Body weight Day 9” value in [1] (20 mg/kg i/p day 1-9, EAC-bearing female Swiss mice, Day 9) is listed as 22.42 g. Further, the “Body weight Day 12” value in series [1] (20 mg/kg i/p day 1-9, EAC-bearing female Swiss mice, Day 12) is 23.16 g. Also, the “Day 13 Av. Tumor weights” value with Ehrlich Tumor (solid) (20 mg/kg i/p day 1-9, Day 13) was determined as 1319.64 ± 56.46 mg. Also, the “Day 13 Av. Body weights” value in the series with Ehrlich Tumor (solid) (20 mg/kg i/p day 1-9, male Swiss mice, Day 13) is 23.71 g. In the series with Ehrlich Tumor (solid) (20 mg/kg i/p day 1-9, male Swiss mice, day 1), the “Av. Body weights (g) of animals on days 1” value was 21.42 g.
Turning to `CC(=O)O[C@H]1C(=O)[C@@]2(C)[C@H]([C@H](OC(=O)c3ccccc3)[C@]3(O)C[C@H](OC(=O)[C@H](O)[C@@H](NC(=O)c4ccccc4)c4ccccc4)C(C)=C1C3(C)C)[C@]1(OC(C)=O)CO[C@@H]1C[C@@H]2O` [Paclitaxel, reference compound], the inhibition at 1 µM with A549 (Lung) (Concentration 1 µM) was determined as 88%; in the series with HCT-116 (Colon) (Concentration 1 µM), 45%; in the series with MCF-7 (Breast cancer) (Concentration 1 µM) it was 77%; with T-47D (Breast cancer) (Concentration 1 µM) it was 78%; in the series on THP-1 (Leukemia) (Concentration 1 µM), 60%.
With `COc1cc([C@@H]2c3cc4c(cc3[C@H](O)[C@H]3COC(=O)[C@H]23)OCO4)cc(OC)c1OC` [Podophyllotoxin], the half-maximal inhibitory concentration (IC50) in the series with tubulin protein was […].
